Laboratory results from patent US20250195490A1, “ALPHA-METHYLENE AND AMINOMETHYL LACTONES AND LACTAMS FOR TREATMENT OF CLOSTRIDIOIDES DIFFICILE INFECTION (CDI)” (Purdue Research Foundation, priority 2022, published 2025).
Values after ≈ are worked out from the molar mass of the structure shown. Read-outs that look alike come from different tables or passages of the source.

Key:
[1] = system: clinically important Clostridioides difficile strains; test: MIC against clinically important Clostridioides difficile strains; format: cell-based; settings: Clostridioides difficile, read-out: MIC
Method: (§1) The antibacterial activity of compounds 48, 50, 51, 61 and 85 against a panel of Clostridioides difficile strains was evaluated. A bacterial solution equivalent to 0.5 McFarland standard was prepared and diluted in brain heart infusion broth supplemented with hemin and vitamin K. Compounds and control drugs were added in the first row of 96-well plates and serially diluted with media containing bacteria (to achieve a concentration gradient ranging from 128 to 1 μg/mL). Plates were then incubated anaerobically at […] for 48 hours.

Ba. fragilis = test: MIC against human normal gut microbiota: Bacteroides fragilis; format: cell-based
Source text: (§2) The activity of the selected lactones against the human gut microbiota was also examined. Microbiota interfere with C. difficile's ability to colonize the gastrointestinal tract and subsequently cause infection. Many antibiotics inhibit/kill the endogenous microflora, which permits enhanced colonization by C. difficile and infection. Three different bacterial species that are present in the gut microflora were used in this experiment; Bifidobacterium (anaerobic Gram-positive bacteria), Bacteroides (anaerobic Gram-negative bacteria) and Lactobacillus (microaerophilic Gram-positive bacteria). Ideal compounds/drugs are those with selective antibacterial activity against C. difficile so as to protect the indigenous microflora present in the GI tract from being damaged/killed (which will exacerbate infections caused by C. difficile).
(§3) Bifidobacterium and Bacteroides were first grown for 48 hours at 37° C., anaerobically, using brain heart infusion supplemented (BHIS) agar (brain heart infusion agar supplemented with hemin, vitamin K and L-cysteine). Lactobacillus was cultivated on MRS agar and incubated in the presence of 5% CO2 for 48 hours at 37° C. Each bacterium was suspended in phosphate-buffered saline (PBS) to achieve 0.5 McFarland standard and subsequently diluted in brain heart infusion supplemented broth (for Bifidobacterium and Bacteroides) or in MRS broth (for Lactobacillus) to achieve a bacterial inoculum of approximately 5×10^5 CFU/mL. Bacteria were then seeded in 96-well plates containing serial dilutions of the compounds and incubated for 48 hours. MICs reported in Table 4 are the minimum concentration of compound/control drug that inhibited the visual growth of bacteria.

L. reuteri = test: MIC against human normal gut microbiota: L. reuteri; format: cell-based, Lactobacillus reuteri; settings: Limosilactobacillus reuteri; L. reuteri HM 120; read-out: MIC
Source text: as §2, §3

Bi. longum = test: MIC against human normal gut microbiota: Bifidobacterium longum; format: cell-based; settings: Bifidobacterium longum; Bi. longum HM 848; read-out: MIC
Source text: as §2, §3

L. crispatus = test: MIC against human normal gut microbiota: L. crispatus; format: cell-based, Lactobacillus crispatus; settings: Lactobacillus crispatus, read-out: MIC
Source text: as §2, §3

Bi. breve = test: MIC against human normal gut microbiota: Bifidobacterium breve; format: cell-based; settings: Bifidobacterium breve; Bi. breve HM 856; read-out: MIC
Source text: as §2, §3

Clostridioides difficile [2] = settings: cited from earlier work
Ba. dorsei = test: MIC against human normal gut microbiota: Bacteroides dorsei; format: cell-based
Source text: as §2, §3

[3] = system: hypervirulent Clostridioides difficile strains; test: MIC against hypervirulent Clostridioides difficile strains; format: cell-based
Method: as §1

L. casei = test: MIC against human normal gut microbiota: L. casei; format: cell-based, Lactobacillus casei; settings: Lacticaseibacillus casei; L. casei HM 334; read-out: MIC
Source text: as §2, §3

L. gasseri = test: MIC against human normal gut microbiota: L. gasseri; format: cell-based, Lactobacillus gasseri; settings: Lactobacillus gasseri; L. gasseri HM 407; read-out: MIC
Source text: as §2, §3

normal gut microflora = test: Activity against normal human gut microflora (panel statement); format: cell-based
Source text: as §2
Bifidobacterium and Bacteroides were first grown for 48 hours at 37° C., anaerobically, using brain heart infusion supplemented (BHIS) agar (brain heart infusion agar supplemented with hemin, vitamin K and L-cysteine). Lactobacillus was cultivated on MRS agar and incubated in the presence of 5% CO2 for 48 hours at 37° C. […]

Clostridioides difficile [4] = test: MIC by broth microdilution against Clostridioides difficile (Table 1); format: cell-based; settings: Clostridioides difficile, BAA1870; anaerobic, 48 hours; strain BAA-1870; read-out: MIC Clostridioides difficile
Method: Method: The minimum inhibitory concentration (MIC) of the compounds and control drugs, linezolid (antibiotic), vancomycin (antibiotic), 5-fluorocytosine (5-FC, antifungal drug), and fluconazole (antifungal drug) was determined using the broth microdilution method according to the guidelines outlined by the Clinical and Laboratory Standards Institute (CLSI) against clinically relevant bacterial (methicillin-resistant Staphylococcus aureus (MRSA), vancomycin-resistant Enterococcus faecalis (VRE), vancomycin-resistant Enterococcus faecium (VRE), Clostridioides difficile and Escherichia coli) and fungal (Candida albicans) strains. A solution equivalent to 0.5 McFarland standard was prepared from each strain and diluted in cation-adjusted Mueller-Hinton broth (for S. aureus and E. coli), tryptone soy broth (for E. faecalis), or brain heart infusion broth (for E. faecium) to achieve a bacterial inoculum of about 5×10^5 CFU/mL. C. difficile strains were cultured in brain heart infusion broth supplemented with hemin and vitamin K. C. albicans was diluted in RPMI medium supplemented with 3-(N-morpholino) propanesulfonic acid to achieve a fungal concentration of about 1.5×10^3 CFU/mL. Compounds and control drugs were added in the first row of the 96-well plates and diluted with media containing bacteria (to achieve a concentration gradient ranging from 128 to 1 μg/mL). For MRSA, VRE, and E. coli strains, plates were then incubated aerobically at 37° C. for at least 18 hours. C. albicans was incubated aerobically at 37° C. for 24 hours. Plates containing C. difficile were incubated anaerobically at […] for 48 hours.

[5] = Bacteroides fragilis, Ba. fragilis HM 709, read-out: MIC
[6] = Bacteroides, Ba. dorsei HM 29, read-out: MIC
[7] = Clostridioides difficile, CD strain 81
[8] = Clostridioides difficile, CD strain 82
[9] = Clostridioides difficile, CD strain 83
[10] = Clostridioides difficile, CD strain 85
[11] = Clostridioides difficile, CD strain 86
[12] = Clostridioides difficile, CD strain 87
[13] = Clostridioides difficile, CD strain 90
[14] = Clostridioides difficile, CD strain 49279
[15] = Clostridioides difficile, CD strain 49287
[16] = Clostridioides difficile, CD strain 49291

CCc1c(Cl)c(O)c(Cl)c(O)c1C(=O)O[C@H]1[C@H](O)[C@H](OC)[C@H](OC/C2=C\C=C\C[C@H](O)/C(C)=C/[C@H](CC)[C@@H](O[C@@H]3OC(C)(C)[C@@H](OC(=O)C(C)C)[C@H](O)[C@@H]3O)/C(C)=C/C(C)=C/C[C@@H]([C@@H](C)O)OC2=O)O[C@@H]1C [Fidaxomicin, fidaxomicin, reference compound]
MIC ([1]; CD strain 16): 0.015 µg/mL (≈ 0.0142 µM) | MIC ([1]; CD strain 18): ≤ 0.007 µg/mL | MIC ([1]; CD strain 19): 0.015 µg/mL (≈ 0.0142 µM) | MIC ([1]; CD strain 1801): 0.015 µg/mL (≈ 0.0142 µM) | MIC ([1]; CD strain 43255): 0.03 µg/mL (≈ 0.0284 µM) | MIC ([1]; CD strain P6): ≤ 0.007 µg/mL | MIC ([1]; CD strain P7): ≤ 0.007 µg/mL | MIC ([1]; CD strain P13): ≤ 0.007 µg/mL | MIC ([1]; CD strain P19): 0.03 µg/mL (≈ 0.0284 µM) | MIC (Ba. fragilis; Ba. fragilis HM 710): >128 µg/mL | MIC (Ba. fragilis; Ba. fragilis HM 711): >128 µg/mL | MIC (Ba. fragilis; Ba. fragilis HM 714): >128 µg/mL | MIC (Ba. fragilis; [5]): > 128 µg/mL | MIC (L. reuteri): 128 µg/mL (≈ 121 µM) | MIC (Bi. longum): 32 µg/mL (≈ 30.2 µM) | MIC (L. crispatus; L. crispatus HM 375): ≤ 1 µg/mL | MIC (L. crispatus; L. crispatus HM 421): 2 µg/mL (≈ 1.89 µM) | MIC (Bi. breve): > 128 µg/mL | recurrence rate (Clostridioides difficile [2]; infections involving the hypervirulent strains): 24% | recurrence rate (Clostridioides difficile [2]; patients treated for an episode of recurrent C. difficile-associated diarrhea): 20% | MIC (Ba. dorsei; Ba. dorsei HM 717): >128 µg/mL | MIC (Ba. dorsei; [6]): > 128 µg/mL | MIC ([3]; CD strain 84): 0/03 | MIC [3, 7]: 0.03 µg/mL (≈ 0.0284 µM) | MIC [3, 8]: 0.3 µg/mL (≈ 0.284 µM) | MIC [3, 9]: 0.015 µg/mL (≈ 0.0142 µM) | MIC [3, 10]: 0.03 µg/mL (≈ 0.0284 µM) | MIC [3, 11]: 0.06 µg/mL (≈ 0.0567 µM) | MIC [3, 12]: 0.015 µg/mL (≈ 0.0142 µM) | MIC [3, 13]: ≤ 0.007 µg/mL | MIC [3, 14]: ≤ 0.007 µg/mL | MIC [3, 15]: ≤ 0.007 µg/mL | MIC [3, 16]: ≤ 0.007 µg/mL | MIC (L. casei): 2 µg/mL (≈ 1.89 µM) | MIC (L. gasseri): 1 µg/mL (≈ 0.945 µM)

Cc1ncc([N+](=O)[O-])n1CCO [Metronidazole, reference compound]
inhibition of bacteria of the normal gut microflora (normal gut microflora): inhibited growth of species of Bacteroides and Bifidobacterium | MIC ([1]; CD strain 16): 0.25 µg/mL (≈ 1.46 µM) | MIC ([1]; CD strain 18): ≤ 0.06 µg/mL | MIC ([1]; CD strain 19): 0.125 µg/mL (≈ 0.73 µM) | MIC ([1]; CD strain 1801): 0.125 µg/mL (≈ 0.73 µM) | MIC ([1]; CD strain 43255): 0.125 µg/mL (≈ 0.73 µM) | MIC ([1]; CD strain P6): ≤ 0.06 µg/mL | MIC ([1]; CD strain P7): 0.25 µg/mL (≈ 1.46 µM) | MIC ([1]; CD strain P13): ≤ 0.06 µg/mL | MIC ([1]; CD strain P19): 0.25 µg/mL (≈ 1.46 µM) | MIC (Clostridioides difficile [4]): 0.25 µg/mL (≈ 1.46 µM) | MIC (Ba. fragilis; Ba. fragilis HM 710): ≤1 µg/mL | MIC (Ba. fragilis; Ba. fragilis HM 711): ≤1 µg/mL | MIC (Ba. fragilis; Ba. fragilis HM 714): ≤1 µg/mL | MIC (Ba. fragilis; [5]): ≤ 1 µg/mL | MIC (L. reuteri): > 128 µg/mL | MIC (Bi. longum): 64 µg/mL (≈ 374 µM) | MIC (L. crispatus; L. crispatus HM 375): > 128 µg/mL | MIC (L. crispatus; L. crispatus HM 421): > 128 µg/mL | MIC (Bi. breve): ≤ 1 µg/mL | MIC (Ba. dorsei; Ba. dorsei HM 717): ≤1 µg/mL | MIC (Ba. dorsei; [6]): ≤ 1 µg/mL | MIC [3, 7]: 0.125 µg/mL (≈ 0.73 µM) | MIC [3, 8]: 0.25 µg/mL (≈ 1.46 µM) | MIC [3, 9]: 0.25 µg/mL (≈ 1.46 µM) | MIC ([3]; Clostridioides difficile, CD strain 84): 0.25 µg/mL (≈ 1.46 µM) | MIC [3, 10]: 0.25 µg/mL (≈ 1.46 µM) | MIC [3, 11]: 0.125 µg/mL (≈ 0.73 µM) | MIC [3, 12]: 0.125 µg/mL (≈ 0.73 µM) | MIC [3, 13]: 0.125 µg/mL (≈ 0.73 µM) | MIC [3, 14]: 0.125 µg/mL (≈ 0.73 µM) | MIC [3, 15]: ≤ 0.06 µg/mL | MIC [3, 16]: 0.125 µg/mL (≈ 0.73 µM) | MIC (L. casei): > 128 µg/mL | MIC (L. gasseri): > 128 µg/mL
